Assay results: patent US20080064725A1, “INTRATHECAL ADMINISTRATION OF TRIPTAN COMPOSITIONS TO TREAT NON-MIGRAINE PAIN” (priority 2006, published 2008)

Experiments:
CD1 male mice [1] = assay: mechanical nociceptive thresholds with calibrated monofilaments, baseline; type: in vivo
CD1 male mice [2] = assay: formalin test of pain behavior
CD1 male mice [3] = assay: CFA-induced persistent inflammation, mechanical hyperalgesia; type: in vivo; settings: IT 0.0006, 0.006, 0.01, 0.06 μg; days 3-7 after CFA
Method: Intrathecal sumatriptan reduces the hyperalgesic effects of persistent inflammation induced by Complete Freunds Agent (CFA). CFA injection produces a prolonged period of mechanical hyperalgesia that persists and remains stable during days 3-7 after injection into the plantar surface of the hindpaw. CD1 male mice were used. Mechanical thresholds were tested on the first day, prior to a single injection of CFA to a hindpaw (baseline). By day 3 after CFA injection animals were hyperalgesic (post CFA 3d). Animals were tested for a sumatriptan response on 4 successive days (days 3-6) after CFA. A mechanical threshold was determined on each successive day prior to the administration of intrathecal sumatriptan. Doses of sumatriptan tested are: 0.0006 μg, 0.006 μg, 0.01 μg, and 0.06 μg, all in the volume of 5 μl. Mechanical thresholds were then determined at 30 and 60 min after the injection. The average withdrawal thresholds for the CFA-treated hindpaw at […] after the administration of each dose of sumatriptan was measured. The antihyperalgesic effect of each of these doses, expressed as a percent of the pre-injection threshold for that day, were compared to the original baseline.
Persistent inflammation after CFA. […] Hindpaw swelling pre- and 72 hours postinjection was measured to confirm the effects of the injection.

CD1 male mice [4] = assay: spared nerve injury (SNI) model of neuropathic pain; type: in vivo
Method: Spared nerve injury (SNI) model of neuropathic pain. A model of partial sciatic nerve injury was used in which the peroneal and sural nerves were selectively ligated and cut, sparing the tibial nerve. […] Animals were injected in a blinded cross-over manner, in which half of the animals received sumatriptan on one day and saline on the other.

CD1 male mice [5] = assay: Rotarod test for sedative and sensorimotor effects; type: in vivo; settings: SC 300, 600 μg/kg or IT 0.06, 0.60 μg; one hour after dosing
Method: To screen for sedative and other adverse sensorimotor effects, mice were tested on a Rotarod (Ugo Basile, Comerio, Italy). The time in which mice were able to balance on a rod rotating on its axis at a constant velocity of 15 rpm were measured. The total duration of each trial was 300 sec. On the day prior to the test, animals accommodated to the task with three separate training trials. […] A single trial was used for each dose and route; reported times represent % change from the baseline value for each animal ±SEM.

CD1 male mice [6] = assay: radiant heat to the hindpaw (Hargreaves test), baseline thresholds; type: in vivo
CD1 male mice [7] = assay: hot plate test of acute thermal pain; type: in vivo
CD1 male mice [8] = assay: carrageenan-induced thermal and mechanical hypersensitivity
[9] = sumatriptan SC 300, 600 μg/kg or IT 0.06, 0.60 μg, unstimulated baseline state
[10] = intrathecal, 24 hours after carrageenan to hindpaw, dose-dependent

CNS(=O)(=O)Cc1ccc2[nH]cc(CCN(C)C)c2c1 [sumatriptan]
mechanical pain threshold, calibrated monofilaments (CD1 male mice [1]; [9]): no significant changes in threshold
formalin test, second phase (11-60 min) pain behavior (CD1 male mice [2]; IT 0.006, 0.06, 0.60 μg one hour before formalin, dose-dependent): profound reduction of pain behavior
formalin test, second phase pain behavior (CD1 male mice [2]; systemic (SC) 300, 600 μg/kg one hour before formalin): modestly reduced second phase behaviors, but only at the highest dose tested
mechanical hypersensitivity after intraplantar CFA (CD1 male mice [3]): reduced mechanical hypersensitivity
mechanical hypersensitivity produced by nerve injury (SNI) (CD1 male mice [4]; SNI 7 d, regardless of dose or route of delivery, IT 0.6 μg, 30-120 min after drug): completely without effect
nociceptive thresholds of unaffected contralateral leg (CD1 male mice [4]; SNI model, IT sumatriptan): unaffected
sedation or sensorimotor incoordination on the Rotarod test (CD1 male mice [5]): no evidence of confounding deficits due to sedation or sensorimotor incoordination
Hargreaves test (radiant heat to hindpaw) threshold (CD1 male mice [6]; [9]): no significant changes in threshold
hot-plate test threshold (latency) (CD1 male mice [7]; [9]): no significant changes in threshold
time after injection at which antinociceptive effect was significant (CD1 male mice [8]; IT sumatriptan, carrageenan model): 30 min
behavior after carrageenan, SC drug compared with control IT saline (CD1 male mice [8]; SC sumatriptan): did not differ
pain thresholds of unstimulated contralateral hindlimb (CD1 male mice [8]; carrageenan model, sumatriptan): did not affect pain thresholds
thermal latencies versus baseline (analgesic effect beyond reversal of hyperalgesia) (CD1 male mice [8]; intrathecal sumatriptan, carrageenan-treated hindpaw): latencies exceeded those at baseline
mechanical hypersensitivity after carrageenan (CD1 male mice [8]; [10]): completely reversed
thermal hypersensitivity after carrageenan (CD1 male mice [8]; [10]): completely reversed

CN1CC[C@]23c4c5ccc(O)c4O[C@H]2[C@@H](O)C=C[C@H]3[C@H]1C5.O=S(=O)(O)O [morphine, morphine sulfate]
mechanical pain test analgesic response (CD1 male mice [1]; positive control, 10 nmol IT): robust analgesic response
formalin test, first phase pain behavior (CD1 male mice [2]; positive control, 10 nmol IT): eliminated
formalin test, second phase pain behavior (CD1 male mice [2]; positive control, 10 nmol IT): eliminated
analgesia in SNI model (CD1 male mice [4]; IT morphine): profound analgesia, to cutoff latencies
Hargreaves test analgesic response (CD1 male mice [6]; positive control, 10 nmol IT): robust analgesic response
hot-plate test analgesic response (CD1 male mice [7]; positive control, 10 nmol IT): robust analgesic response
analgesia in carrageenan model (CD1 male mice [8]; IT morphine): profound analgesia, with all animals reaching the cutoff latency
